Patent US20240158446A1, “CYCLIC COMPOUND HAVING SELECTIVE INHIBITORY ACTION ON KRAS OVER HRAS AND NRAS” (CHUGAI SEIYAKU KABUSHIKI KAISHA, priority 2021, published 2024)
Like-named read-outs stand apart in the source and are kept apart here. Where a SMILES comes first, the peptide text is derived from it. Bridges are numbered along the chain shown (N, C = ends). [ ]: non-standard residue; d: D form. The star is where a group is joined. hPhe(3,5-F2-4-CF3) = N[C@@H](CCc1cc(F)c(C(F)(F)F)c(F)c1)C(=O)O; hPhe(3-Cl-4-CF3) = N[C@@H](CCc1ccc(C(F)(F)F)c(Cl)c1)C(=O)O; NPrPhe(4-CF3) = CCCN[C@@H](Cc1ccc(C(F)(F)F)cc1)C(=O)O; NMeGly(cPent) = CN[C@H](C(=O)O)C1CCCC1; Hyp = O=C(O)[C@@H]1C[C@@H](O)CN1; NMeD = CN[C@@H](CC(=O)O)C(=O)O; NMeL = CN[C@@H](CC(C)C)C(=O)O; αMeL = CC(C)C[C@](C)(N)C(=O)O; Morpholide = C1CN(*)CCO1; Ac5c = NC1(C(=O)O)CCCC1; Aze = O=C(O)[C@@H]1CCN1; Sar = CNCC(=O)O

What was measured:
[1] = biological target: GDP-bound HRAS wild-type protein (Homo sapiens, UniProt P01112); experiment: Binding to HRAS by surface plasmon resonance (SPR), Single Cycle Kinetics; details: SPR, GDP-bound HRAS wild-type protein vs GDP-bound KRAS wild-type protein
GDP-bound HRAS wild-type protein, sequence (P01112 whole entry): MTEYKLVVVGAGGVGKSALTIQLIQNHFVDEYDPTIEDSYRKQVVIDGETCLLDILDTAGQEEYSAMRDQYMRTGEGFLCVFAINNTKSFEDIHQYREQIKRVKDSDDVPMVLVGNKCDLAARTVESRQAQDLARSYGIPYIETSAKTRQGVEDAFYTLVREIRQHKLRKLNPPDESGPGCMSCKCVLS

[2] = biological target: GDP-bound NRAS wild-type protein (Homo sapiens, UniProt P01111); experiment: Binding to NRAS by surface plasmon resonance (SPR), Single Cycle Kinetics; details: SPR, GDP-bound NRAS wild-type protein vs GDP-bound KRAS wild-type protein
GDP-bound NRAS wild-type protein, sequence (P01111 whole entry): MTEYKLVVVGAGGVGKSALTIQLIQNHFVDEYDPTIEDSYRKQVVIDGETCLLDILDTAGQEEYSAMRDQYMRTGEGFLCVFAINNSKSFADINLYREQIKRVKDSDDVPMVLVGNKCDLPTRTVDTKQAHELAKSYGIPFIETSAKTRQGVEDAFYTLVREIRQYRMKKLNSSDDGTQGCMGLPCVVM

[3] = biological target: GDP-bound KRAS wild-type protein (Homo sapiens, UniProt P01116); experiment: Binding to KRAS by surface plasmon resonance (SPR), Single Cycle Kinetics; details: GDP-bound KRAS wild-type protein, read-out: KRAS KD
GDP-bound KRAS wild-type protein, sequence (P01116 whole entry): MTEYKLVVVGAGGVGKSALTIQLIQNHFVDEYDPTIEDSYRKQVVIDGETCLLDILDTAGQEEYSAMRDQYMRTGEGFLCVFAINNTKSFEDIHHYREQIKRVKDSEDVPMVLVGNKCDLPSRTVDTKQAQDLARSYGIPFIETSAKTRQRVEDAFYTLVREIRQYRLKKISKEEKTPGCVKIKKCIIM

[4] = SPR, Single Cycle Kinetics, 1:1 binding model
[5] = SPR Single Cycle Kinetics, 1:1 binding model

SMILES: CC[C@H](C)[C@@H]1NC(=O)[C@H](CC(C)C)N(C)C(=O)C[C@@H](C(=O)N2CCOCC2)N(C)C(=O)[C@H](C2CCCC2)N(C)C(=O)C2(CCC2)NC(=O)[C@@H]2[C@@H](OCC3CCCC3)CCN2C(=O)[C@H](CCc2cc(F)c(C(F)(F)F)c(F)c2)NC(=O)CN(C)C(=O)[C@H](Cc2ccc(C(F)(F)F)cc2)N2CCCC[C@@H](C2=O)N(C)C(=O)CN(C)C1=O [PP1073]
- HRAS/KRAS (ratio of KD value for HRAS to KD value for KRAS) [1]: B (a compound having 3 or more and less than 10 is denoted as B)
- NRAS/KRAS (ratio of KD value for NRAS to KD value for KRAS) [2]: B (a compound having 3 or more and less than 10 is denoted as B)
- Kd ([3]; SPR, Single Cycle Kinetics): 0.36 nM

SMILES: CCO[C@@H]1C[C@H]2C(=O)NC3(CCCC3)C(=O)N(C)[C@@H](C3CCCC3)C(=O)N(C)[C@H](C(=O)N(C)C)CC(=O)N(C)[C@@H](CC(C)C)C(=O)N[C@@H]([C@@H](C)CC)C(=O)N(C)CC(=O)N(C)[C@H]3C/C=C\CCN(C3=O)[C@@H](Cc3ccc(C)cc3)C(=O)N(C)CC(=O)N[C@@H](CCc3ccc(C(F)(F)F)c(OC)c3)C(=O)N2C1 [PP2197]
- HRAS/KRAS (ratio of KD value for HRAS to KD value for KRAS) [1]: B (a compound having 3 or more and less than 10 is denoted as B)
- NRAS/KRAS (ratio of KD value for NRAS to KD value for KRAS) [2]: A (a compound having 10 or more and less than 20 is denoted as A)
- Kd ([3]; SPR, Single Cycle Kinetics): 0.15 nM

SMILES: CCO[C@@H]1C[C@H]2C(=O)NC3(CC(F)(F)C3)C(=O)N(C)[C@@H](C3CCCC3)C(=O)N(C)C(C(C)C)CC(=O)N(C)[C@@H](CC3CC3)C(=O)N[C@@H]([C@@H](C)CC)C(=O)N(C)CC(=O)N(C)[C@H]3C/C=C\CCN(C3=O)[C@@H](Cc3ccc(C(F)(F)F)cc3)C(=O)N(C)CC(=O)N[C@@H](CCc3cc(F)c(C(F)(F)F)c(F)c3)C(=O)N2C1 (stereo partly drawn) [PP1598]
- HRAS/KRAS (ratio of KD value for HRAS to KD value for KRAS) ([1]; KD ratio class): A (a compound having 10 or more and less than 20 is denoted as A)
- NRAS/KRAS (ratio of KD value for NRAS to KD value for KRAS) ([2]; KD ratio class): A (a compound having 10 or more and less than 20 is denoted as A)
- Kd [3, 4]: 0.76 nM

SMILES: CCC[C@H]1C(=O)N[C@@H]([C@@H](C)CC)C(=O)N(C)CC(=O)N(C)[C@H]2CCCCN(C2=O)[C@@H](Cc2ccc(C(F)(F)F)cc2)C(=O)N(C)CC(=O)N[C@@H](CCc2cc(F)c(C(F)(F)F)c(F)c2)C(=O)N2C[C@H](OCC)C[C@H]2C(=O)NC2(CCC2)C(=O)N(C)[C@@H](C2CCCC2)C(=O)N(C)[C@H](C(=O)N(C)C)CC(=O)N1C [PP0694]
- HRAS/KRAS (ratio of KD value with respect to HRAS to KD value with respect to KRAS) [1]: C (A compound having a KD ratio of 0.1 or more and less than 3 is denoted as C)
- NRAS/KRAS (ratio of KD value with respect to NRAS to KD value with respect to KRAS) [2]: C (A compound having a KD ratio of 0.1 or more and less than 3 is denoted as C)
- Kd [3, 5]: 0.025 nM

SMILES: CCCN1C(=O)[C@@H]2CCN2C(=O)CN(C)C(=O)[C@H]([C@@H](C)CC)NC(=O)[C@H](CC(C)C)N(C)C(=O)C[C@@H](C(=O)N2CCOCC2)N(C)C(=O)[C@H](C2CCCC2)N(C)C(=O)[C@](C)(CC(C)C)NC(=O)[C@@H]2CCCN2C(=O)[C@H](CCc2cc(F)c(C(F)(F)F)c(F)c2)NC(=O)CN(C)C(=O)[C@@H]1Cc1ccc(C(F)(F)F)cc1 [PP0795] ([NMeL]I[Sar][Aze][NPrPhe(4-CF3)][Sar][hPhe(3,5-F2-4-CF3)]P[αMeL][NMeGly(cPent)][NMeD]-Morpholide; lactam N-11)
- HRAS/KRAS (ratio of KD value with respect to HRAS to KD value with respect to KRAS) [1]: B (a compound having 3 or more and less than 10 is denoted as B)
- NRAS/KRAS (ratio of KD value with respect to NRAS to KD value with respect to KRAS) [2]: C (A compound having a KD ratio of 0.1 or more and less than 3 is denoted as C)
- Kd [3, 5]: 2.5 nM

SMILES: CCC[C@H]1C(=O)N[C@@H](C2CCCC2)C(=O)N(C)CC(=O)N(C)[C@H]2C/C=C\CCN(C2=O)[C@@H](Cc2ccc(C(F)(F)F)cc2)C(=O)N(C)CC(=O)N[C@@H](CCc2ccc(C(F)(F)F)c(Cl)c2)C(=O)N2CC3(CC3)C[C@H]2C(=O)NC2(CC(C)(C)C2)C(=O)N(C)[C@@H](CC(C)(C)C)C(=O)N(C)[C@H](C(=O)N(C)C)CC(=O)N1C [PP2981]
- HRAS/KRAS (ratio of KD value for HRAS to KD value for KRAS) [1]: A (a compound having 10 or more and less than 20 is denoted as A)
- NRAS/KRAS (ratio of KD value for NRAS to KD value for KRAS) [2]: AA (a compound having 20 or more is denoted as AA)
- Kd ([3]; SPR, Single Cycle Kinetics): 0.31 nM

SMILES: CC[C@H](C)[C@@H]1NC(=O)[C@H](C2CC2)N(C)C(=O)C[C@@H](C(=O)N(C)CC)N(C)C(=O)[C@H](C2CCCC2)N(C)C(=O)C2(CCC2)NC(=O)[C@@H]2C[C@H](C)CN2C(=O)[C@H](CCc2cc(F)c(C(F)(F)F)c(F)c2)NC(=O)CN(C)C(=O)[C@H](Cc2ccc(C(F)(F)F)cc2)N2CC/C=C\C[C@@H](C2=O)N(C)C(=O)CN(C)C1=O [PP2080]
- HRAS/KRAS (ratio of KD value for HRAS to KD value for KRAS) [1]: A (a compound having 10 or more and less than 20 is denoted as A)
- NRAS/KRAS (ratio of KD value for NRAS to KD value for KRAS) [2]: A (a compound having 10 or more and less than 20 is denoted as A)
- Kd ([3]; SPR, Single Cycle Kinetics): 0.093 nM

SMILES: CC[C@H](C)[C@@H]1NC(=O)[C@H](CC(C)C)N(CC)C(=O)C[C@@H](C(=O)N2CCOCC2)N(C)C(=O)[C@H](C2CCCC2)N(C)C(=O)C2(CCCC2)NC(=O)[C@@H]2CCCN2C(=O)[C@H](CCc2cc(F)c(C(F)(F)F)c(F)c2)NC(=O)CN(C)C(=O)[C@H](Cc2ccc(C(F)(F)F)cc2)N2CCCCC[C@@H](C2=O)N(C)C(=O)CN(C)C1=O [PP0513]
- HRAS/KRAS (ratio of KD value with respect to HRAS to KD value with respect to KRAS) [1]: B (a compound having 3 or more and less than 10 is denoted as B)
- NRAS/KRAS (ratio of KD value with respect to NRAS to KD value with respect to KRAS) [2]: B (a compound having 3 or more and less than 10 is denoted as B)
- Kd [3, 5]: 6.2 nM

SMILES: CC[C@H](C)[C@@H]1NC(=O)[C@H](CC(C)C)N(C)C(=O)C[C@@H](C(=O)N2CCOCC2)N(C)C(=O)[C@H](C2CCC2)N(C)C(=O)C2(CCCC2)NC(=O)[C@@H]2CCCN2C(=O)[C@H](CCc2cc(F)c(C(F)(F)F)c(F)c2)NC(=O)CN(C)C(=O)[C@H](Cc2ccc(C(F)(F)F)cc2)N2CCCC[C@@H](C2=O)N(C)C(=O)CN(C)C1=O [PP0566]
- HRAS/KRAS (ratio of KD value with respect to HRAS to KD value with respect to KRAS) [1]: B (a compound having 3 or more and less than 10 is denoted as B)
- NRAS/KRAS (ratio of KD value with respect to NRAS to KD value with respect to KRAS) [2]: B (a compound having 3 or more and less than 10 is denoted as B)
- Kd [3, 5]: 0.29 nM

SMILES: CCCN1C(=O)[C@@H]2CCN2C(=O)CN(C)C(=O)[C@H]([C@@H](C)CC)NC(=O)[C@H](CC(C)C)N(C)C(=O)C[C@@H](C(=O)N2CCOCC2)N(C)C(=O)[C@H](C2CCCC2)N(C)C(=O)C2(CCCC2)NC(=O)[C@@H]2C[C@@H](OCC)CN2C(=O)[C@H](CCc2ccc(C(F)(F)F)c(Cl)c2)NC(=O)CN(C)C(=O)[C@@H]1Cc1ccc(C(F)(F)F)cc1 [PP0410] ([NMeL]I[Sar][Aze][NPrPhe(4-CF3)][Sar][hPhe(3-Cl-4-CF3)][Hyp](Et)[Ac5c][NMeGly(cPent)][NMeD]-Morpholide; lactam N-11)
- HRAS/KRAS (ratio of KD value with respect to HRAS to KD value with respect to KRAS) [1]: B (a compound having 3 or more and less than 10 is denoted as B)
- NRAS/KRAS (ratio of KD value with respect to NRAS to KD value with respect to KRAS) [2]: C (A compound having a KD ratio of 0.1 or more and less than 3 is denoted as C)
- Kd [3, 5]: 0.058 nM

SMILES: CCC[C@H]1C(=O)N[C@@H]([C@@H](C)CC)C(=O)N(C)CC(=O)N(C)[C@H]2C/C=C\CCN(C2=O)[C@@H](Cc2ccc(C(F)(F)F)cc2)C(=O)N(C)CC(=O)N[C@@H](CCc2cc(F)c(C(F)(F)F)c(F)c2)C(=O)N2C[C@H](OCC)C[C@H]2C(=O)NC2(CCC2)C(=O)N(C)[C@@H](C2CCCC2)C(=O)N(C)[C@H](C(=O)N(CC)CC)CC(=O)N1C [PP1310, (2S,8S,12R,14S,20S,23S,27S,30S,36S,38Z)-20-cyclopentyl-8-[2-[3,5-difluoro-4-(trifluoromethyl)phenyl]ethyl]-12-ethoxy-N,N-diethyl-4,19,22,26,32,35-hexamethyl-30-[(1S)-1-methylpropyl]-3,6,9,15,18,21,25,28,31,34,42-undecaoxo-27-propyl-2-[[4-(trifluoromethyl)phenyl]methyl]spiro[1,4,7,10,16,19,22,26,29,32,35-undecazatricyclo[34.5.1.0^10,14]dotetracont-38-ene-17,1′-cyclobutane]-23-carboxamide]
- HRAS/KRAS (ratio of KD value for HRAS to KD value for KRAS) ([1]; KD ratio class): A (a compound having 10 or more and less than 20 is denoted as A)
- NRAS/KRAS (ratio of KD value for NRAS to KD value for KRAS) ([2]; KD ratio class): AA (a compound having 20 or more is denoted as AA)
- Kd [3, 4]: 0.13 nM

SMILES: CCO[C@@H]1C[C@H]2C(=O)NC3(CCC3)C(=O)N(C)[C@@H](C3CCCC3)C(=O)N(C)[C@H](C(=O)N3CCCCC3)CC(=O)N(C)[C@H]3CCCCCCc4ccc(cc4)C[C@@H](C(=O)N(C)CC(=O)N[C@@H](CCc4ccc(C(F)(F)F)c(OC)c4)C(=O)N2C1)N1CC/C=C\C[C@@H](C1=O)N(C)C(=O)CN(C)C(=O)[C@H]([C@@H](C)CC)NC3=O [PP3033, (1S,7S,11R,13S,19S,22S,26S,29S,35S,37Z)-19-cyclopentyl-11-ethoxy-7-[2-[3-methoxy-4-(trifluoromethyl)phenyl]ethyl]-3,18,21,25,31,34-hexamethyl-29-[(1S)-1-methylpropyl]-22-(piperidine-1-carbonyl)spiro[3,6,9,15,18,21,25,28,31,34,41-undecazapentacyclo[24.15.11.2^43,46.1^35,41.0^9,13]pentapentaconta-37,43(54),44,46(53)-tetraene-16,1′-cyclobutane]-2,5,8,14,17,20,24,27,30,33,55-undecone]
- HRAS/KRAS (ratio of KD value for HRAS to KD value for KRAS) [1]: B (a compound having 3 or more and less than 10 is denoted as B)
- NRAS/KRAS (ratio of KD value for NRAS to KD value for KRAS) [2]: A (a compound having 10 or more and less than 20 is denoted as A)
- Kd ([3]; SPR, Single Cycle Kinetics): 0.18 nM
